Source: patent US20230001012A1, “COCRYSTALS OF STEROID AND SECOSTEROID COMPOUNDS AND COMPOSITIONS COMPRISING THEM” (priority 2019, published 2023)

Legend:
Format in all cases: physicochemical
[1] = Stability of VD2 vs VD2 cocrystals (beta-sitosterol, orcinol) under two stress conditions, solid form analysed periodically by PXRD; conditions: for stability under both stress conditions (in words): 25° C./57% RH and 40° C./75% RH
Procedure: The stability of the VD2 cocrystal with beta-sitosterol and VD2 cocrystal with orcinol was studied and compared to the stability of VD2 (Form A) under two stress conditions. The samples were stored under both stress conditions inside a Series FD Binder chamber and they were analyzed periodically by PXRD. The two stress conditions were the following: • condition A: 25° C. and 57% relative humidity; • condition B: 40° C. and 75% relative humidity.
A saturated solution of sodium bromide salt (for 57% RH) and a saturated solution of sodium chloride (for 75% RH) were used to control relative humidity.

[2] = Dissolution rate of tablets in FaSSIF v2 medium (small-scale dissolution assay, UV quantification, Noyes-Whitney fit); conditions: FaSSIF v2 (pH 6.5), 25° C.; for dissolution rate: 120 minutes, 3 mm tablet
Procedure: Molar extinction coefficients of VD2, VD3 and of the coformer were determined by UV-metric titration using a GIpKa™ titrator (Sirius Analytical Instruments, UK). Briefly, a 10 mM stock solution of sample was prepared in DMSO. 50 μL of sample stock solution and 0.25 mL of a 15 mM potassium phosphate buffer were added to 10 mL of a 0.15 M KCl solution, which in turn contained 17.9 mg of FaSSIF v2 powder. The pH of the sample solution was adjusted to 2 with 0.5 M HCl before starting the titration, and then the titration was done using 0.5 M KOH up to pH 12. The UV absorption spectra (between 250 and 450 nm) of the solution were recorded at each titrant addition by a fiber optic dip-probe. The collected data were refined through the RefinamentPro software, and the pKa values and Molar Extinction Coefficients obtained by Target Factor Analysis.
• Tablet production: tablets of 3 mm diameter were done using a manual hydraulic tablet press (Applied Measurements Ltd, UK). The applied pressure was 100 Kg for 2 min. From 6 to 10 mg of each solid form, vitamin or cocrystal, were weighted. The total exposed surface area was […]. • Medium: FaSSIF v2 (pH 6.5), with corresponding amount of phosphoric (28.4 mM) acid instead of maleic acid. • Dissolution tests were performed with a small-scale dissolution assay installed in a GIpKa™ titrator (Sirius Analytical Instruments, UK). • Dissolution time and temperature: 120 minutes and 25° C. • Procedure: 15 mL of FaSSIF v2 was added into the sample vial containing the tablet. Spectra collection started immediately after. Spectra were recorded every 30 seconds between 250 and 450 nm through a Sirius D-PAS spectrometer with a bifurcated optic fibre dip probe (Hellma Analytics). The medium was stirred at a constant rate.
The concentration of cholecalciferol (VD3) or ergocalciferol (VD2) in solution at each time point is determined from the spectroscopic data by applying the Beer-Lambert law, using previously determined molar extinction coefficients of the pure APIs and the coformers. Spectrum regions where signal is saturated (A>1.5) or presenting medium interferences were discarded. Then, the concentration data were converted into absolute sample quantities, and used to generate the graphs showing the sample quantity vs. time.
Dissolution rate is obtained through the fit of the first order Noyes-Whitney exponential equation to the data: […]
In this equation, [X]t is the weight in grams of compound in solution at the experiment time (min); S is the extrapolated solubility (g) of the vitamin; kd is the rate constant for dissolution (min^−1); and t0 (min) is a term allowing for a temporal offset. Results are calculated using a refinement process in which S, kd and t0 are varied in order to minimize the root mean square deviation between the modelled concentrations and the measured concentrations. The dissolution rate (g min^−1) is given by the product kdS (T. Gravestock et al., Anal. Methods, 2011, 3, 560).

[3] = Stability of VD3:resorcinol cocrystal vs commercial VD3 in a mineral-vitamin premix containing choline chloride (HPLC-MS)
Procedure: The stability of the VD3:resorcinol cocrystal mixed in a premix that was a standard mineral-vitamin mix containing choline was studied under normal and high environmental temperature/humidity and compared to the stability of commercial VD3 for animal nutrition (Orffa D3 500) in the same premix under de same conditions.
• 25° C. and 57% humidity (temperature controlled chambers with a saturated solution of NaBr to maintain humidity at 57%); • 40° C. and 75% humidity (temperature controlled chambers with a saturated solution of NaCl to maintain humidity at 75%).
The mineral mix was supplemented to contain 750,000 UI/kg Vitamin A, 5,000 mg/kg vitamin E and 12.5% choline chloride (choline chloride, vegetal coating, 60%). VD3 final content was 1,600,000 UI/Kg (both for the cocrystal VD3:resorcinol and for the commercial VD3.
Samples (2 g) were weighted in 50 mL plastic tubes and incubated in the experimental conditions (see above). Samples for each individual time were incubated in quadruplicates to account for potential variation. Samples were prepared to be retrieved from incubators at 2, 4, 8 and 12 weeks. After each time, samples were processed and analyzed immediately (no storage).
Samples were subjected to an extraction process done in the incubation tube with the full sample to avoid sub-sampling problems. Extracted supernatant was analysed for vitamin D using and HPLC (Model 1260 Series, Agilent, Darmstadr, Germany) coupled with a MS-QQQ (Model G6420, Agilent) against a calibrated curve using a standard vitamin D3. Results are reported as a percent degradation compared with the original Vitamin concentration.

[4] = Stability of VD3 vs VD3:orcinol cocrystal under stress conditions (40° C.-75% RH), solid form analysed periodically by PXRD
Procedure: The samples were stored under these conditions inside a Series FD Binder chamber and they were analyzed periodically by PXRD. A saturated solution of sodium chloride (75%) was used to control relative humidity.

[5] = 40° C./75% H, premix with choline chloride

**Q.** Which results are given for `C=C1CC[C@H](O)C/C1=C/C=C1\CCC[C@]2(C)[C@@H]([C@H](C)/C=C/[C@H](C)C(C)C)CC[C@@H]12` [VD2, ergocalciferol]?
**A.** Solid form (PXRD) under stress conditions ([1]; 25° C.-57% RH, 0 days): Form A; Solid form (PXRD) under stress conditions ([1]; 25° C.-57% RH, 370 days): Amorphous phase; stability under both stress conditions (in words) [1]: very low stability; Solid form (PXRD) under stress conditions ([1]; 40° C.-75% RH, 0 days): Form A; Solid form (PXRD) under stress conditions ([1]; 40° C.-75% RH, 210 days): Liquid phase; time at which conversion into an amorphous phase started ([1]; both stress conditions): ≤ 25 days; dissolution rate [2]: 0.74 ± 0.23 nmol/min

**Q.** What does the source list for `C=C1CCC(O)CC1=CC=C1CCCC2(C)C1CCC2C(C)C=CC(C)C(C)C.C=C1CCC(O)CC1=CC=C1CCCC2(C)C1CCC2C(C)C=CC(C)C(C)C.CCC(CCC(C)C1CCC2C3CC=C4CC(O)CCC4(C)C3CCC12C)C(C)C` (stereo not drawn) [VD2:beta-sitosterol]?
**A.** time remained as the same starting solid form ([1]; 25° C. and 57% of relative humidity): ≥ 370 days; stability under both stress conditions (in words) [1]: very high stability; time remained as the same starting solid form ([1]; 40° C. and 75% of relative humidity): ≥ 25 days; Solid form (PXRD) under stress conditions ([1]; 40° C.-75% RH, 210 days): Amorphous; Solid form (PXRD) under stress conditions ([1]; 40° C.-75% RH, 370 days): Amorphous

**Q.** Which “stability in premix, comparison of the two environmental conditions” value ([3]; 25° C./57% H vs 40° C./75% H) does the source give for `C=C1CC[C@H](O)C/C1=C/C=C1\CCC[C@]2(C)[C@@H]([C@H](C)CCCC(C)C)CC[C@@H]12` [VD3, cholecalciferol, reference compound] here?
**A.** The value was “more stable at 25° C./57% H compared with 40° C./75% H”.

**Q.** And the “stability under stress conditions (in words)” value [4]?
**A.** The value was “very low stability”.

**Q.** And the “time to conversion into a liquid phase” value [4]?
**A.** Its value is “five”.

**Q.** What about the “Solid form (PXRD) under stress conditions” value ([4]; 0 days) of the same molecule?
**A.** The value was “Form A”.

**Q.** And the “Solid form (PXRD) under stress conditions” value ([4]; 5 days)?
**A.** Its value is “liquid”.

**Q.** What about the dissolution rate [2] of the same molecule?
**A.** The dissolution rate was 0.58 ± 0.14 nmol/min.

**Q.** For `C=C1CCC(O)CC1=CC=C1CCCC2(C)C1CCC2C(C)C=CC(C)C(C)C.C=C1CCC(O)CC1=CC=C1CCCC2(C)C1CCC2C(C)CCCC(C)C` (centres unmarked) [VD3-VD2], which dissolution rate [2] is on record?
**A.** The dissolution rate was 0.63 ± 0.21 nmol/min.

**Q.** Which “stability in premix compared with VD3” value ([3]; 25° C./57% H, premix with choline chloride) does the source give for `C=C1CCC(O)CC1=CC=C1CCCC2(C)C1CCC2C(C)CCCC(C)C.Oc1cccc(O)c1` (centres unmarked) [VD3-resorcinol] here?
**A.** The value was “more stable than VD3”.

**Q.** And the “change of stability in premix” value [3, 5]?
**A.** The value was “sharp reduction in stability”.

**Q.** What about the “stability in premix compared with commercial VD3” value [3, 5] of the same molecule?
**A.** The value was “better performance than commercial VD3”.

**Q.** What about the “stability in premix compared with VD3” value ([3]; both conditions (25° C./57% H and 40° C./75% H)) of the same molecule?
**A.** Its value is “more stable than VD3”.

**Q.** What about the “dissolution speed compared with other solid forms” value [2] of the same molecule?
**A.** The value was “dissolved faster than VD2, VD3, or VD2-VD3”.

**Q.** And the dissolution rate [2]?
**A.** Its dissolution rate is 0.94 ± 0.22 nmol/min.

**Q.** For `C=C1CCC(O)CC1=CC=C1CCCC2(C)C1CCC2C(C)CCCC(C)C.Cc1cc(O)cc(O)c1` (centres unmarked) [VD3:orcinol], which “stability under stress conditions (in words)” value [4] is on record?
**A.** Its value is “very high stability”.
